# According to patent US20250360145A1, “CSF-1R INHIBITORS AND USES THEREOF” (Myrobalan Therapeutics, Inc., priority 2022, published 2025):
# Experiments:
# CSF-1R = CSF-1R (Homo sapiens (Human), UniProt P07333); assay: Biochemical HTRF kinase assay, CSF-1R; settings: Table 2; recombinant human CSF-1R;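 note: enzyme incubated with inhibitor plus a substrate and ATP mix for one hour at room temperature before HTRF detection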
# [1] = system: Ba/F3_CSF-1R (stably expressing human CSF-1R kinase); assay: Cell proliferation assay, Ba/F3_CSF-1R; format: cell-based; settings: BaF3, 72 h, Ba/F3_CSF-1R cells, 72 hours treatment; read-out: CSF-1R BaF3 EC50
# EOC2 cell = assay: Cell proliferation assay, EOC2; format: cell-based, mouse; settings: Mus musculus, 72 h, EOC2 cells, 72 hours treatment; read-out: ECO2 EC50
# CSF-1R, sequence (P07333 20-972): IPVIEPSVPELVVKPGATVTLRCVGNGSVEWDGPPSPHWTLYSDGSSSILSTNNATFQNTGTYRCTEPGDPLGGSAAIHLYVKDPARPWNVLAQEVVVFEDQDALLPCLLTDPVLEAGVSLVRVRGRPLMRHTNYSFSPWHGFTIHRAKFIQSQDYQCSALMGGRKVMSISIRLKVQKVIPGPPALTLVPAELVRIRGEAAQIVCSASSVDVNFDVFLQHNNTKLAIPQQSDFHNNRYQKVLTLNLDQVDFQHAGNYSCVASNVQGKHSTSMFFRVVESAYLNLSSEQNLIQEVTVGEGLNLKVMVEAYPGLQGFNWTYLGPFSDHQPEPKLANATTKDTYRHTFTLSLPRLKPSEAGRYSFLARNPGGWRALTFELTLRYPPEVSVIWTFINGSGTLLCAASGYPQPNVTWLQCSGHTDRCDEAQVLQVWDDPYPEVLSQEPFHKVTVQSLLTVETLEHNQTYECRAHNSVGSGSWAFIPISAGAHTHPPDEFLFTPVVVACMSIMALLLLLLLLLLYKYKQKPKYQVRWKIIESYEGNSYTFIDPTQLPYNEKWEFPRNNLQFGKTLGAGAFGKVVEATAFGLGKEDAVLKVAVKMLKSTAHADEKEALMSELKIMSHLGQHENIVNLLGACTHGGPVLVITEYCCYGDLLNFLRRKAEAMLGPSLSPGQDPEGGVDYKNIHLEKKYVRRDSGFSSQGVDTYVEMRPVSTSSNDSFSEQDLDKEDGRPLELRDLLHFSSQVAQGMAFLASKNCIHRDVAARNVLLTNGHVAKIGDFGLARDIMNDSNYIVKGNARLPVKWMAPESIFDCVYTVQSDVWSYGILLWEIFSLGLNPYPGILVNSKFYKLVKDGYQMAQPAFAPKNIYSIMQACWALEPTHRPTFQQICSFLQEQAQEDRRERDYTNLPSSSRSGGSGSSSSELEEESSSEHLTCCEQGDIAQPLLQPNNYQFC
Structure (SMILES),IC50 (CSF-1R) [nM],EC50 [1] [nM],EC50 (EOC2 cell) [nM]
CCn1cc(COc2ncc(Cc3ccnc4cc(OC)cnc34)cc2OC)cn1 [Example 47],2,> 1000,> 1000
COc1cnc2c(Cc3cnc(OCc4ccn(C)n4)c(OC)c3)ccnc2c1 [Example 48],8.2,586,296
COc1cnc2c(Cc3cnc(OCc4ccnn4C)c(OC)c3)ccnc2c1 [Example 49],62.1,> 1000,> 1000
COc1cnc2c(Cc3cnc(OCc4cnc(OC)nc4)c(OC)c3)ccnc2c1 [Example 50],15.2,481,312
COc1cnc2c(Cc3cnc(OCc4cc(C)on4)c(OC)c3)ccnc2c1 [Example 51],105,590,225
COc1ccc(COc2ncc(Cc3ccnc4cc(OC)ncc34)cc2OC)nc1 [Example 52],49.7,482,209
COc1ccc(COc2ncc(Cc3ccnc4ccc(OC)nc34)cc2OC)nc1 [Example 53],60.1,338,278
"COc1ccc(COc2ncc(Oc3ccnc4cc(OC)cnc34)cc2OC)nc1 [Example 54, 3-methoxy-8-((5-methoxy-6-((5-methoxypyridin-2-yl)methoxy)pyridin-3-yl)oxy)-1,5-naphthyridine]",87.1,800,317
CCc1cc(COc2ncc(Cc3ccnc4cc(OC)cnc34)cc2OC)on1 [Example 57],19,178,98.6
COc1cnc2c(Cc3cnc(OCc4ccc(C(F)F)nc4)c(OC)c3)ccnc2c1 [Example 60],5.4,97.3,84.1
COc1cnc2c(Cc3cnc(OCc4ccc(C(F)(F)F)cn4)c(OC)c3)ccnc2c1 [Example 61],3.9,70.6,47.4
COc1ccc(COc2ncc(Cc3ccnc4cc(C)cnc34)cc2OC)nc1 [Example 63],16.7,236,688
COc1ccc(COc2ncc(Cc3ccnc4cc(F)cnc34)cc2OC)nc1 [Example 64],21.8,400,973
"COc1ccc(COc2ncc(Cc3ccnc4cc(C#N)cnc34)cc2OC)nc1 [Example 65, 8-((5-methoxy-6-((5-methoxypyridin-2-yl)methoxy)pyridin-3-yl)methyl)-1,5-naphthyridine-3-carbonitrile]",26.9,787,> 1000
COc1cnc2c(Cc3cnc(OCc4ccc(=O)n(C)c4)c(OC)c3)ccnc2c1 [Example 67],9.3,> 1000,> 1000
"COc1ccc(COc2ncc(Cc3ccnc4cc(OC)cnc34)cc2OC(F)F)nc1 [Example 68, 8-((5-(difluoromethoxy)-6-((5-methoxypyridin-2-yl)methoxy)pyridin-3-yl)methyl)-3-methoxy-1,5-naphthyridine]",99.2,> 1000,> 1000
COc1cnc2c(Cc3cnc(OCc4ccc(C5CC5)cn4)c(OC(F)F)c3)ccnc2c1 [Example 69],203,> 1000,> 1000
COc1cnc2c(Cc3cnc(OCc4nc(C)no4)c(OC)c3)ccnc2c1 [Example 70],272,> 1000,> 1000
COCc1ccc(COc2ncc(Cc3ccnc4cc(OC)cnc34)cc2OC)nc1 [Example 71],25.4,359,168
COc1cnc2c(Cc3cnc(OCc4cc5n(n4)CCN(C)C5)c(OC)c3)ccnc2c1 [Example 75],32,949,448
COc1cnc2c(Cc3cnc(OCc4ccc(C5COC5)cn4)c(OC)c3)ccnc2c1 [Example 76],13.6,302,82.1
COc1ccc(COc2ncc(C(C)c3ccnc4cc(OC)cnc34)cc2OC)nc1 (stereo not drawn) [Example 77],101,543,360
"COc1ccc(COc2ncc(C(F)c3ccnc4cc(OC)cnc34)cc2OC)nc1 (stereo not drawn) [Example 84, 8-(fluoro(5-methoxy-6-((5-methoxypyridin-2-yl)methoxy)pyridin-3-yl)methyl)-3-methoxy-1,5-naphthyridine]",28.4,> 1000,> 1000
COc1cnc2c(Cc3cnc(OCc4ccc(CN(C)C)cn4)c(OC)c3)ccnc2c1 [Example 85],110,> 1000,> 1000
COc1cnc2c(Cc3cnc(OCc4cc5n(n4)CCCO5)c(OC)c3)ccnc2c1 [Example 86],4.4,290,183
COc1cnc2c(Cc3cnc(OCc4ccc(C5CN(C)C5)cn4)c(OC)c3)ccnc2c1 [Example 89],286,> 1000,> 1000
COc1cnc2c(Cc3cnc(OCc4cc(C5COC5)no4)c(OC)c3)ccnc2c1 [Example 90],17.4,282,154

Structure (SMILES),IC50 (CSF-1R) [nM],EC50 [1] [nM],EC50 (EOC2 cell) [nM]
COc1cnc2c(Cc3cnc(OCc4cc(C)n(C5CN(C)C5)n4)c(OC)c3)ccnc2c1 [Example 91],40.6,753,388
COc1cnc2c(Cc3cnc(OCc4cnc5c(c4)CCC5OC)c(OC)c3)ccnc2c1 (stereo not drawn) [Example 92],1.8,67.9,26
COc1cnc2c(Cc3cnc(OCc4cn5c(n4)CN(C)CC5)c(OC)c3)ccnc2c1 [Example 94],14,> 1000,> 1000
[2H]C([2H])(c1cnc(OCc2ccc(OC)cn2)c(OC)c1)c1ccnc2cc(OC)cnc12 [Example 95],3.4,42.2,54.3
COCc1cc(COc2ncc(Cc3ccnc4cc(OC)cnc34)cc2OC)nn1C [Example 96],16.2,234,190
COc1cnc2c(Cc3cnc(OCc4cc(C(F)(F)F)n(C)n4)c(OC)c3)ccnc2c1 [Example 97],2,34,82.7
COc1cnc2c(Cc3cnc(OCc4cc5n(n4)CCOC5C)c(OC)c3)ccnc2c1 (stereo not drawn) [Example 98],4.7,57.3,54.7
COc1cnc2c(Cc3cnc(OCc4cc5n(n4)CCOC5(C)C)c(OC)c3)ccnc2c1 [Example 99],5.6,59.1,51.7
COc1cnc2c(Cc3cnc(OCc4cc(C(C)OC)n(C)n4)c(OC)c3)ccnc2c1 (stereo not drawn) [Example 102],4,134,77
COc1cnc2c(Cc3cnc(OCc4cc5n(n4)C(C)COC5)c(OC)c3)ccnc2c1 (stereo not drawn) [Example 103],1.9,41.7,26
COc1cnc2c(Cc3cnc(OCc4cc(C(C)C)nn4C)c(OC)c3)ccnc2c1 [Example 106],2.6,95.9,76.3
COc1cnc2c(Cc3cnc(OCc4cc5n(n4)CCCOC5)c(OC)c3)ccnc2c1 [Example 107],1.6,65.9,37.1
COc1cnc2c(Cc3cnc(OCc4cc5n(n4)CC4(CC4)C5)c(OC)c3)ccnc2c1 [Example 108],1.9,37.6,23.7
COc1cnc2c(Cc3cnc(OCc4cc(C5CC5)n(C)n4)c(OC)c3)ccnc2c1 [Example 109],1.1,102,43.7
COc1cnc2c(Cc3cnc(OCc4cc5n(n4)C[C@H](C(F)(F)F)C5)c(OC)c3)ccnc2c1 [Example 110],3.4,109,36.2
COc1cnc2c(Cc3cnc(OCc4cc5n(n4)[C@H]4C[C@H]4C5)c(OC)c3)ccnc2c1 [Example 111],2.2,35,17.4
COc1cnc2c(Cc3cnc(OCc4cc(C(C)(C)OC)n(C)n4)c(OC)c3)ccnc2c1 [Example 113],12.3,348,143
COc1cnc2c(Cc3cnc(OCc4cccc(C(=O)N(C)C)n4)c(OC)c3)ccnc2c1 [Example 117],21.1,344,170
COc1cnc2c(Cc3cnc(OCc4cccc(N5CCC5)n4)c(OC)c3)ccnc2c1 [Example 118],3.6,96.9,34.5
COc1cnc2c(Cc3cnc(OCc4cc5n(n4)[C@@H]4C[C@@H]4C5)c(OC)c3)ccnc2c1 [Example 120],1.9,43.7,18
COc1cnc2c(Cc3cnc(OCc4ccc5cnn(C)c5n4)c(OC)c3)ccnc2c1 [Example 122],14,131,108
COc1cnc2c(Cc3cnc(OCc4cccc(N(C)C(C)=O)n4)c(OC)c3)ccnc2c1 [Example 123],52.5,128,77
COc1cnc2c(Cc3cnc(OCc4cccn(C)c4=O)c(OC)c3)ccnc2c1 [Example 124],320,> 1000,442
COc1cnc2c(Cc3cnc(OCc4cccc(=O)n4C)c(OC)c3)ccnc2c1 [Example 125],522,> 1000,950
COc1ccc(COc2ncc(Cc3ccnc4cc(N5CCC(OC)C5)cnc34)cc2OC)nc1 (stereo not drawn) [Example 126],12.2,3.8,2.4
COc1ccc(COc2ncc(Cc3ccnc4cc(N5CCC5)cnc34)cc2OC)nc1 [Example 127],22.3,28,25.4
COc1cnc2c(Cc3cnc(OCc4cc5n(n4)C[C@@H](F)C5)c(OC)c3)ccnc2c1 [Example 128],4.9,21.5,4.9
